Measured values reported in patent US11752139B2, “Therapeutic combinations of orally administered irinotecan and a p-gp inhibitor for the treatment of cancer” (priority 2018, dated 2023).
Where “and” joins values, the source holds several entries; their conditions need not be identical. Identical values can stand only once. Like-named read-outs stand apart in the source and are kept apart here.

Columns and labels:
[1] = IV dose of 340 mg/m^2; reference line of FIG. 5A; cited from earlier work
[2] = for AUC24 h / Cmax / Tmax: N = 3
Description: A phase 1 dose escalation study was performed to determine the MTD and DLT of orally administered irinotecan in combination with 15 mg (on day 1 of a 21-day cycle) of HM30181A. The study was performed on cohorts of 3-6 subjects with advanced malignancies. Subjects had Hb (hemoglobin count) 9 gm/dL, ANC (absolute neutrophil count) 1.5×10^9/L, and platelets 100×10^9/L, as well as adequate hepatic and renal function, and ECOG (Eastern Cooperative Oncology Group Performance Status) 0-1, and were not homozygous for UGT1A1*28.

[3] = Simple Emax model of exposure (AUCinf, Cmax) versus dose
[4] = Study 2: pharmacokinetics of oral irinotecan and M1, 5-20 mg/m^2 per day for 10 days during a 21 day cycle; conditions: for AUC24 / Cmax: mean
[5] = Study 1: pharmacokinetics of oral irinotecan and M1, 5-30 mg/m^2 per day for five days during a 21 day cycle; conditions: for AUC24 / Cmax: mean
[6] = Tablet, dose 120 (mg), Mean (CV %), N 3, plasma
[7] = Tablet, dose 160 (mg), Mean (CV %), N 3, plasma
[8] = Tablet, dose 200 (mg), Mean (CV %), N 3, plasma
[9] = Tablet, dose 240 (mg), Mean (CV %), N 3, plasma
[10] = Tablet, dose 280 (mg), Mean (CV %), N 3, plasma
[11] = Tablet, dose 320 (mg), Mean (CV %), N 3, plasma
[12] = single oral dose 240 mg/m^2, individual subjects 1-3, plasma
[13] = single oral dose 280 mg/m^2, individual subjects 4-6, plasma
[14] = single oral dose 320 mg/m^2, individual subjects 7-9, plasma
[15] = dose 240 mg/m^2 oral irinotecan + 15 mg HM30181A
[16] = dose 280 mg/m^2 oral irinotecan + 15 mg HM30181A
[17] = dose 320 mg/m^2 oral irinotecan + 15 mg HM30181A

CCc1c2c(nc3ccc(OC(=O)N4CCC(N5CCCCC5)CC4)cc13)-c1cc3c(c(=O)n1C2)COC(=O)[C@]3(O)CC [IV dosed irinotecan]
Cmax [1]: 3392 ng/mL

CCc1c2c(nc3ccc(O)cc13)-c1cc3c(c(=O)n1C2)COC(=O)[C@]3(O)CC [Compound M1]
AUC0-inf (Tablet, dose 120 (mg), Mean (CV %), N 2, plasma): 274 (18.3) ng*hr/mL | AUC0-24 [6]: 168 (32.9) ng*hr/mL | Cmax [6]: 23.1 (58.4) ng/mL | Tlast [6]: 56.0 h | Tmax* (Tablet, dose 120 (mg), N 3, plasma): 3.00 h | AUC0-24 [7]: 156 (22.6) ng*hr/mL | AUC0-inf [7]: 235 (13.4) ng*hr/mL | Cmax [7]: 25.0 (58.1) ng/mL | Tlast [7]: 48.0 (21.7) hr | Tmax* (Tablet, dose 160 (mg), N 3, plasma): 3.00 h | AUC0-24 [8]: 185 (66.3) ng*hr/mL | AUC0-inf [8]: 468 (90.0) ng*hr/mL | Cmax [8]: 23.0 (102) ng/mL | Tlast [8]: 88.0 (83.3) hr | Tmax* (Tablet, dose 200 (mg), N 3, plasma): 3.00 h | AUC0-24 [9]: 264 (66.4) ng*hr/mL | Cmax [9]: 28.3 (67.3) ng/mL | Tlast [9]: 96.0 (66.1) hr | AUC0-inf (Tablet, dose 240 (mg), N 1, plasma): 224 ng·h/mL | Tmax* (Tablet, dose 240 (mg), N 3, plasma): 3.00 h | AUC0-24 [10]: 293 (60.0) ng*hr/mL | AUC0-inf [10]: 468 (67.3) ng*hr/mL | Cmax [10]: 37.6 (42.4) ng/mL | Tlast [10]: 72.0 (0) hr | Tmax* (Tablet, dose 280 (mg), N 3, plasma): 1.5 h | AUC0-24 [11]: 300 (42.3) ng*hr/mL | Cmax [11]: 38.5 (58.7) ng/mL | Tlast [11]: 72.0 (0) hr | AUC0-inf (Tablet, dose 320 (mg), N 1, plasma): 349 ng·h/mL | Tmax* (Tablet, dose 320 (mg), N 3, plasma): 2.00 h | Observed Mean (Cmax) (dose 200 mg/m^2): 23 ng/mL | Observed Mean AUCinf (dose 200 mg/m^2): 468 ng·h/mL | Observed Mean (Cmax) (dose 240 mg/m^2): 28.3 ng/mL | Observed Mean AUCinf (dose 240 mg/m^2): 224 ng·h/mL | Observed Mean (Cmax) (dose 280 mg/m^2): 37.6 ng/mL | Observed Mean AUCinf (dose 280 mg/m^2): 468 ng·h/mL | Observed Mean (Cmax) (dose 320 mg/m^2): 38.7 ng/mL | Observed Mean AUCinf (dose 320 mg/m^2): 349 ng·h/mL | subjects with M1 exposures (AUC24) comparable between oral irinotecan and IV irinotecan (dose level of 200 mg/m^2 and above): 4 of 9 | M1 Cmax compared with IV irinotecan (oral solution administration): within the range of 125 mg/m^2 dosed IV irinotecan | early enterohepatic recycling (EHR) in plasma concentration profile, time (plasma): 5.5 h | possible enterohepatic recycling (EHR) in plasma concentration profile, time (plasma): 50 h | AUC24 [12]: 133 ng·h/mL and 463 ng·h/mL and 195 ng·h/mL | AUCinf [12]: 224 ng·h/mL | AUClast [12]: 185 ng·h/mL and 636 ng·h/mL and 376 ng·h/mL | Cmax [12]: 17.1 ng/mL and 50.3 ng/mL and 17.5 ng/mL | Tlast [12]: 48 h and 168 h and 72 h | Tmax [12]: 3 h | AUC24 [13]: 497 ng·h/mL and 190 ng·h/mL and 194 ng·h/mL | AUCinf [13]: 831 ng·h/mL and 273 ng·h/mL and 300 ng·h/mL | AUClast [13]: 783 ng·h/mL and 256 ng·h/mL and 282 ng·h/mL | Cmax [13]: 55.4 ng/mL and 33.0 ng/mL and 24.5 ng/mL | Tlast [13]: 72 h | Tmax [13]: 1 h and 1.5 h and 3 h | AUC24 [14]: 212 ng·h/mL and 445 ng·h/mL and 242 ng·h/mL | AUCinf [14]: 349 ng·h/mL | AUClast [14]: 322 ng·h/mL and 713 ng·h/mL and 410 ng·h/mL | Cmax [14]: 28.1 ng/mL and 64.8 ng/mL and 23.2 ng/mL | Tlast [14]: 72 h | Tmax [14]: 1.5 h and 2 h and 3 h | M1 Cmax compared with IV irinotecan (tablet formulation, FIG. 5B): in a range of that observed with IV irinotecan dosage of 340 mg/m^2 | AUC24 h [2, 15]: 264 ng·h/mL | Cmax [2, 15]: 28.3 ng/mL | Tmax [2, 15]: 3.0 h | AUC24 h [2, 16]: 293 ng·h/mL | Cmax [2, 16]: 37.6 ng/mL | AUC24 h [2, 17]: 300 ng·h/mL | Cmax [2, 17]: 38.5 ng/mL | Tmax [2, 17]: 2.0 h | concentrations of SN-38 reached ([2]; oral administration of HM30181A in combination with irinotecan tablets): pharmacologically active concentrations | Predicted AUCinf ([3]; dose 200 mg/m^2): 423 | Predicted Cmax ([3]; dose 200 mg/m^2): 29.2 | Predicted AUCinf ([3]; dose 240 mg/m^2): 464 | Predicted Cmax ([3]; dose 240 mg/m^2): 31.9 | Predicted AUCinf ([3]; dose 280 mg/m^2): 499 | Predicted Cmax ([3]; dose 280 mg/m^2): 34.1 | Predicted AUCinf ([3]; dose 320 mg/m^2): 528 | Predicted Cmax ([3]; dose 320 mg/m^2): 38.8 | pharmacokinetics versus dose ([4]; 5-20 mg/m^2 per day for 10 days during a 21 day cycle): increased proportionally with dose | AUC24 ([4]; Day 1, dose group 5 mg/m^2): 41.40 µg·h/L | Cmax ([4]; Day 1, dose group 5 mg/m^2): 7.08 µg/L | AUC24 ([4]; Day 1, dose group 10 mg/m^2): 43.34 µg·h/L | Cmax ([4]; Day 1, dose group 10 mg/m^2): 5.04 µg/L | AUC24 ([4]; Day 1, dose group 15 mg/m^2): 85.61 µg·h/L | Cmax ([4]; Day 1, dose group 15 mg/m^2): 10.19 µg/L | AUC24 ([4]; Day 1, dose group 20 mg/m^2): 54.44 µg·h/L | Cmax ([4]; Day 1, dose group 20 mg/m^2): 4.15 µg/L | AUC24 ([4]; Day 12, dose group 5 mg/m^2): 42.53 µg·h/L | Cmax ([4]; Day 12, dose group 5 mg/m^2): 6.10 µg/L | AUC24 ([4]; Day 12, dose group 10 mg/m^2): 38.17 µg·h/L | Cmax ([4]; Day 12, dose group 10 mg/m^2): 4.04 µg/L | AUC24 ([4]; Day 12, dose group 15 mg/m^2): 144.14 µg·h/L | Cmax ([4]; Day 12, dose group 15 mg/m^2): 18.00 µg/L | AUC24 ([4]; Day 12, dose group 20 mg/m^2): 71.97 µg·h/L | Cmax ([4]; Day 12, dose group 20 mg/m^2): 7.63 µg/L | pharmacokinetics versus dose ([5]; 5-30 mg/m^2 per day for five days during a 21 day cycle): increased proportionally with dose | AUC24 ([5]; Day 1, dose group 5 mg/m^2): 49.83 µg·h/L | Cmax ([5]; Day 1, dose group 5 mg/m^2): 6.07 µg/L | AUC24 ([5]; Day 1, dose group 10 mg/m^2): 46.04 µg·h/L | Cmax ([5]; Day 1, dose group 10 mg/m^2): 7.84 µg/L | AUC24 ([5]; Day 1, dose group 15 mg/m^2): 50.29 µg·h/L | Cmax ([5]; Day 1, dose group 15 mg/m^2): 5.33 µg/L | AUC24 ([5]; Day 1, dose group 20 mg/m^2): 63.56 µg·h/L | Cmax ([5]; Day 1, dose group 20 mg/m^2): 8.92 µg/L | AUC24 ([5]; Day 1, dose group 25 mg/m^2): 143.97 µg·h/L | Cmax ([5]; Day 1, dose group 25 mg/m^2): 17.10 µg/L | AUC24 ([5]; Day 1, dose group 30 mg/m^2): 83.64 µg·h/L | Cmax ([5]; Day 1, dose group 30 mg/m^2): 7.31 µg/L | AUC24 ([5]; Day 5, dose group 5 mg/m^2): 68.61 µg·h/L | Cmax ([5]; Day 5, dose group 5 mg/m^2): 5.84 µg/L | AUC24 ([5]; Day 5, dose group 10 mg/m^2): 51.40 µg·h/L | Cmax ([5]; Day 5, dose group 10 mg/m^2): 6.15 µg/L | AUC24 ([5]; Day 5, dose group 15 mg/m^2): 118.29 µg·h/L | Cmax ([5]; Day 5, dose group 15 mg/m^2): 11.14 µg/L | AUC24 ([5]; Day 5, dose group 20 mg/m^2): 119.38 µg·h/L | Cmax ([5]; Day 5, dose group 20 mg/m^2): 11.73 µg/L | AUC24 ([5]; Day 5, dose group 25 mg/m^2): 178.58 µg·h/L | Cmax ([5]; Day 5, dose group 25 mg/m^2): 14.93 µg/L | AUC24 ([5]; Day 5, dose group 30 mg/m^2): 308.27 µg·h/L | Cmax ([5]; Day 5, dose group 30 mg/m^2): 13.44 µg/L
